The values below are quoted from earlier work in patent US12396980B2, “Melatonin for preventing and treating radiation cystitis” (RepoCeuticals A/S, priority 2015, dated 2025).

The subject of one series is radiation cystitis. The settings on record: human patients.
Another series deals with rat urinary bladder. The settings on record: intraperitoneal.
The next series relates to lymphocytes. The settings on record: prior oral dosage; human beings.

In the case of `C[S+](C)[O-]` [DMSO, Dimethyl sulfoxide], the “therapeutic effect on radiation cystitis” value with radiation cystitis is “some therapeutic effect”.
On to `COC1=C(OC)C(=O)C(C/C=C(\C)CC/C=C(\C)CC/C=C(\C)CC/C=C(\C)CC/C=C(\C)CC/C=C(\C)CC/C=C(\C)CC/C=C(\C)CC/C=C(\C)CCC=C(C)C)=C(C)C1=O` [coenzyme Q10], for which the water solubility entry is listed as “almost water-insoluble”.
Consider `COc1ccc2[nH]cc(CCNC(C)=O)c2c1` [melatonin, /V-acetyl-5-methoxytryptamine], for which the “protective effect against radiation-induced oxidative changes to the rat urinary bladder” value with rat urinary bladder is given as “protective effect”. The “protective effect on the damage caused by subsequent ex vivo radiation exposure of lymphocytes” value in the series with lymphocytes is “protective effect”.
